These results are taken from US9771585B2, “miR-155 inhibitors for treating cutaneous T cell lymphoma (CTCL)” (miRagen Therapeutics, Inc., priority 2015, dated 2017).

l = locked nucleic acid (LNA); d = 2'-deoxy (DNA)

Common to all, as to assay type: cell-based, human
For series [1], the system named is miR-155-5p. Kind of series: Real time PCR of miR-155 direct target genes (four-gene signature) in mycosis fungoides cell lines MJ, HuT102, My-La. The conditions noted are these: for gene expression signature of four direct miR-155-5p targets versus untreated cells: MJ and HuT102 cells, 10 μM, 72 hours; for target de-repression: both HuT102 and MyLa cell lines, compared to compound 3; for antimiR activity by four-gene signature (Bach1, Jarid2, Picalm, Ship1): cumulative across 2, 10 and 50 μM and three mycosis fungoides cell lines, compared to compounds 1 and 3. As to the method: CTCL cell lines were cultured in complete growth medium with the addition of antimiR-155 compound 1 (SEQ ID NO: 27), compound 2 (SEQ ID NO: 22), compound 3 (SEQ ID NO: 23), and compound 4 (SEQ ID NO: 25) at concentrations ranging from 2 μM to 50 μM. The antimiRs were added to the medium without any additional components to enhance cellular uptake. Cells were harvested after 72 hours of treatment and total RNA was purified. Real time PCR was performed for 13 direct gene targets of miR-155 (Worm et al. 2009; O'Connell et al. 2010; Zhang et al. 2012; and miRagen unpublished data). The relative fold-change in the expression of the 13 genes in the antimiR-treated cells compared to the untreated cells was calculated. […] Four predicted direct targets that lacked expression in at least one cell line were omitted. The gene expression fold-changes were log10-transformed, plotted on a grayscale, representing the highest relative increase in gene expression, and conversely, the greatest reduction in gene expression.
Four direct gene targets of miR-155-5p (Bach1, Jarid2, Picalm, and Ship1) were chosen for additional analysis, as these four genes were modulated by antimiR-155 in all three mycosis fungoides cell lines (MJ, HuT102, and My-La). These genes were chosen to represent the gene expression signature for antimiR activity in vitro. Additionally, the four-gene signature was used to compare the activity of the antimiR compounds. These gene changes were reproducible over three independent experiments with cells of varying passage numbers. FIGS. 3, 4, 5, 6, and 7 show the fold-change results of this four-gene signature in the HuT102, MJ, HH, My-La, and Hut78 cell lines, respectively. * p-value <0.0001 vs untreated by nonparametric Mann-Whitney test. The Mann-Whitney test was chosen because the variances are unequal between the treatments compared to untreated cells.
The control oligonucleotide was a 14-nucleotide antimiR targeting a C. elegans miRNA not expressed in mammals (control 1). The second oligo is a scramble of the 14-nucleotide sequence of antimiR-155 compound 4 (control 2). The MJ and HuT102 cell lines were incubated with 10 μM antimiR-155 compounds 3 (SEQ ID NO: 23) or 4 (SEQ ID NO: 25) or the two control oligos for 72 hours.

In series [2] the test system is miR-155-5p. In words: Whole genome expression profiling of mycosis fungoides cell lines (MJ, HuT102, MyLa). As to the method:
To gain a more complete understanding of the molecular consequences of miR-155 inhibition in mycosis fungoides cell lines, whole genome transcriptome profiling was performed on MJ and HuT102 cell lines treated with antimiR-155 compounds 3 (SEQ ID NO: 23) or 4 (SEQ ID NO: 25) for 4 days (96 hours) or 8 days. The statistically-significant gene expression signature was defined by one-way ANOVA for antimiR-treated cells compared to untreated cells at the same time point. […] The fold-change results are shown in FIGS. 9 and 10 as heat maps, as described for FIG. 2.
(§1) The activity of antimiR-155 compound 4 (SEQ ID NO: 25) was further investigated by treating the third mycosis fungoides cell line, MyLa, with compound 4 (SEQ ID NO: 25) for 4 days and 8 days and profiling the changes in gene expression. To test the specificity of compound 4 (SEQ ID NO: 25), cells of the Sézary syndrome cell line (HuT78) were treated with compound 4 (SEQ ID NO: 25) for 8 days and the changes in gene expression were profiled. Genes that are statistically changed with a false discovery rate (FDR) corrected p-value of <0.05 in response to compound 4 (SEQ ID NO: 25) in three mycosis fungoides cell lines, HuT102, MJ, and My-La, are depicted in the heat map as described above. The total number of genes in the heat map is 324.

Series [3] concerns miR-155-5p. In words: Whole genome expression profiling of Sézary syndrome cell line HuT78. The note with it: 8 days. As to the method: as §1
Series [4] concerns HuT102 cells. Kind of series: Proliferation (cell number by ATP level) of HuT102 cells. The conditions noted are these: HuT-102 cells over time; compared with bexarotene. The method, then: (§2) Since the level of ATP correlates directly with cell number, ATP was measured to determine the cell number. […] The reduction in cell number was accompanied by an increase in apoptosis as measured by caspase 3/7 activity (FIG. 14B). The caspase 3 and 7 proteins are members of the cysteine aspartic acid-specific protease (caspase) family. The caspase family plays key effector roles in apoptosis in mammalian cells. Caspase activity was normalized to ATP levels, as all cells have a low level of basal caspase activity that can confound the results if not normalized appropriately.

For series [5], the system named is HuT102 cells. Kind of series: Apoptosis (caspase 3/7 activity) in HuT102 cells. As to the method:
as §2
HuT102 cells were treated with 0.25 μM SAHA and 10 μM compound 3 (SEQ ID NO: 23) or 4 (SEQ ID NO: 25), individually or in combination. Cells were harvested daily to measure ATP levels and caspase 3/7 activity. A similar experiment was performed with 0.50 μM SAHA.

The subject of series [6] is My-La cells. Kind of series: Proliferation of My-La cells. The note with it: compared to compound 3. The source says: (§3) FIGS. 17A and 17B show proliferation and activation of caspase 3/7 over time with compounds 3 (SEQ ID NO: 23) and 4 (SEQ ID NO: 25).
In series [7] the test system is My-La cells. Kind of series: Caspase 3/7 activity in My-La cells. The conditions noted are these: compared to compound 3.
Source text: as §3

The subject of series [8] is HuT102 and MyLa cell lines. In words: Cellular proliferation of CTCL cells after passive uptake. The conditions noted are these: compared to compound 3. As to the method: (§4) Passive uptake of antimiR-155 compounds by CTCL cells produced a significant reduction in cellular proliferation and induced programmed cell death.
as §2

The subject of series [9] is HuT102 and MyLa cell lines. Kind of series: Programmed cell death (apoptosis) of CTCL cells after passive uptake. The note with it: compared to compound 3. The method, then:
as §4, §2

A further series relates to miR-155. In words: Dual luciferase reporter assay with miR-155 binding site in HeLa cells. The note with it: 2 nM oligonucleotide, 10 nM miR-155 mimic, 50 ng reporter. The source says: To assess the activity of a miR-155 inhibitor, a dual luciferase reporter assay system was used. In brief, the binding site for miR-155 was cloned into the 3′ UTR of the Renilla luciferase gene located within the commercially-available psiCHECK-2 vector system (Promega). In the absence of a miR-155 inhibitor, the expression of Renilla luciferase protein is repressed by a miR-155 mimic. In the presence of a miR-155 inhibitor, the expression of Renilla luciferase protein is de-repressed. […] Expression of either Renilla or firefly luciferase is measured through detection of light emitted by the luciferase protein.
50 ng of the dual luciferase reporter plasmid containing the miR-155 binding site was transfected into HeLa cells without a miR-155 mimic (“Reporter” only), with 10 nM miR-155 mimic (“Reporter+mimic”), with 10 nM miR-155 mimic and 2 nM of the control oligonucleotide, or with 10 nM miR-155 mimic and 2 nM of a test miR-155 oligonucleotide inhibitor of 11-14 nucleotide lengths (Table 4). The miR-155 mimic was purchased from Dharmacon (miRIDIAN microRNA Human hsa-miR-155-5p mimic; Accession number MIMAT0000646; catalog # C-300647-05-0005) and contains the mature miRNA sequence: -[…]-(SEQ ID NO: 121). The control oligonucleotide used in the experiment had the following sequence: 5′-1Cs.dTs.dAs.1Gs.dAs.1As.dAs.1Gs.1As.dGs.1Ts.dAs.1Gs.1A-3′ (SEQ ID NO: 122).
In general terms: In a reporter assay the amount or activity of a reporter protein is the signal.

For the substance “5′-lCs.dAs.lCs.dGs.dAs.lTs.lTs.dAs.lGs.dCs.lAs.lTs.lTs.lA-3′ (CACGATTAGCATTA; sugars from the 5' end ldlddlldldllll, all phosphorothioate, methylation of C not given here) [compound 4]”, in the series on miR-155-5p [1], the “gene expression signature of four direct miR-155-5p targets versus untreated cells” value is “statistically significantly different from that of untreated cells”; the target de-repression result is on record as “greater target de-repression”; the “antimiR activity by four-gene signature (Bach1, Jarid2, Picalm, Ship1)” value is “more active”. In addition, the “genes up-regulated or down-regulated in all three mycosis fungoides cell lines” value in the series with miR-155-5p [2] (Day 4 and Day 8 signatures combined, Table 2) is reported as 587 genes. Moreover, in the series with miR-155-5p [2] (MJ and HuT102, day 4 and day 8, heat map intensity), the “magnitude of gene regulation” value was “greater magnitude of gene regulation”. In addition, in the series with miR-155-5p [3], the “change in gene expression” value was “did not show much change in the gene expression”. For the same substance, in the series on HuT102 cells [4], the “effect on cell number (ATP)” value was “comparable to that seen with bexarotene”. Further, in the series on HuT102 cells [5] (HuT102, 10 μM compound combined with 0.25 or 0.5 μM SAHA, compared to each treatment alone), the “apoptosis (caspase 3/7 activity) in combination with SAHA” value was “increased apoptosis”. Further, the “induction of apoptosis (caspase 3/7 activity normalized to ATP)” value in the series on HuT102 cells [5] (HuT-102 cells over time, compared with bexarotene) was “greater induction of apoptosis than bexarotene”. The proliferation over time entry in the series on My-La cells [6] is “greater activity”. In the series with My-La cells [7], the “activation of caspase 3/7 over time” value is given as “greater activity”. In addition, in series [8], the inhibition of proliferation result is recorded as “greater inhibition of proliferation”. For the same substance, the apoptotic activity result in series [9] is given as “greater apoptotic activity”.
As to “5′-lCs.dGs.lAs.lTs.lTs.dAs.lGs.dCs.lAs.lTs.lTs.lA-3′ (CGATTAGCATTA; sugars from the 5' end ldllldldllll, all phosphorothioate, methylation of C not given here) [compound 3]”, the “gene expression signature of four direct miR-155-5p targets versus untreated cells” value in the series on miR-155-5p [1] was “statistically significantly different from that of untreated cells”.
“5′-lCs.dGs.lAs.lTs.lTs.lAs.lGs.dCs.lAs.lTs.lTs.lA-3′ (CGATTAGCATTA; sugars from the 5' end l1 d1 l5 d1 l4, all phosphorothioate, methylation of C not given here) [compound 2]”: in the series on miR-155-5p [1], the target de-repression entry is recorded as “greater target de-repression” and the “antimiR activity by four-gene signature (Bach1, Jarid2, Picalm, Ship1)” value is on record as “more active”. Moreover, the inhibition of proliferation result in [8] was “greater inhibition of proliferation”. Besides, in [9], the apoptotic activity result is given as “greater apoptotic activity”.
With “5′-1Cs.dTs.dAs.1Gs.dAs.1As.dAs.1Gs.1As.dGs.1Ts.dAs.1Gs.1A-3′ (CTAGAAAGAGTAGA; LNA/DNA mix, phosphorothioate backbone; miR-155 control oligo 11317; (1)..(14) May be joined through phosphorothioate bonds; modified_base (1)..(1) May be locked nucleic acid cytidine; modified_base (4)..(4) May be locked nucleic acid guanosine; modified_base (6)..(6) May be locked nucleic acid adenosine; modified_base (8)..(8) May be locked nucleic acid guanosine; modified_base (9)..(9) May be locked nucleic acid adenosine; modified_ba) [control oligonucleotide, control oligonucleotide used in the dual luciferase reporter experiment]”, the “de-repression of Renilla luciferase expression” value in the series with miR-155 is “did not de-repress the expression of luciferase”.
